Laboratory results: ChEMBL document CHEMBL4602734, “Hybrid Screening Approach for Very Small Fragments: X-ray and Computational Screening on FKBP51” (J Med Chem, 2020)
Activity calls are given as the source filed them. No cut-off for these calls is given here.

Experiments:
[1] = molecular target: T1, Peptidyl-prolyl cis-trans isomerase FKBP5 (Homo sapiens, UniProt Q13451); experiment: Binding affinity to 15N-labeled FKBP51 (1 to 140 residues) (unknown origin) expressed in Escherichia coli OD2N by two-dimensional 1H/15N HSQC NMR spectroscopy
T1 sequence (Q13451 whole entry): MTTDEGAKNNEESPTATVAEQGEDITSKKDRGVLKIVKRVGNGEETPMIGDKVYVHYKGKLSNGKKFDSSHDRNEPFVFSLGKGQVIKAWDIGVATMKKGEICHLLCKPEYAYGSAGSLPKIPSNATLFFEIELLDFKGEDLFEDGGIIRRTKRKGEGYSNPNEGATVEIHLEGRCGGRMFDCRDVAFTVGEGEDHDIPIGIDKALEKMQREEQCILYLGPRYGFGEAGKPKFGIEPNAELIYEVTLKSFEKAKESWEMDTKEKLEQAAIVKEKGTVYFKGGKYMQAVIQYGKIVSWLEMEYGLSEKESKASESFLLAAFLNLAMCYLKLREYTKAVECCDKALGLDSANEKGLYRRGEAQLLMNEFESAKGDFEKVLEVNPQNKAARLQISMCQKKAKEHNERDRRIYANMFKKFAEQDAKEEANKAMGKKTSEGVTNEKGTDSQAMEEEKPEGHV

[2] = molecular target: T2, Peptidyl-prolyl cis-trans isomerase FKBP5 (Homo sapiens) (UniProt Q13451); experiment: Binding affinity to 15N-labeled FKBP51 (1 to 140 residues) (unknown origin) expressed in Escherichia coli OD2N assessed as induction of chemical shift perturbations at Ile87 residues by two-dimensional 1H/15N HSQC NMR spectroscopy
T2 sequence (whole entry): T1 sequence (Q13451 whole entry)

[3] = molecular target: T2, Peptidyl-prolyl cis-trans isomerase FKBP5 (Homo sapiens); experiment: Binding affinity to 15N-labeled FKBP51 (1 to 140 residues) (unknown origin) expressed in Escherichia coli OD2N assessed as induction of chemical shift perturbations at Leu81, Gly82, Gln85, Ile87, Ala89, Trp90, Asp91, Met97, and Glu110 residues by two-dimensional 1H/15N HSQC NMR spectroscopy
[4] = molecular target: T2, Peptidyl-prolyl cis-trans isomerase FKBP5 (Homo sapiens); experiment: Binding affinity to 15N-labeled FKBP51 (1 to 140 residues) (unknown origin) expressed in Escherichia coli OD2N assessed as induction of chemical shift perturbations by two-dimensional 1H/15N HSQC NMR spectroscopy

Row | Compound | Kd [1] | Activity [2] | Activity [3] | Activity [4]
1 | Oc1ccccn1 | 1300 µM | Active | – | –
2 | O=C1CCCCN1 | 2800 µM | – | Active | –
3 | NC(=O)c1cccnc1 | – | – | – | inactive
4 | c1c[nH]cn1 [IMIDAZOLE] | 4400 µM | Active | – | –
5 | Cc1c[nH]cn1 | 2900 µM | Active | – | –
6 | O=C1CNC(=O)N1 | – | – | – | inactive
